Experimental data from PMC4909640 (EBioMedicine, 2016).

Tested on: enteroendocrine proglucagon-containing cells (L-cells)
Conditions: perfused mouse proximal small intestine, n = 4; basal to peak; P < 0.001

Structure (SMILES): [Cl-].[K+] [KCl]
- increase of GLP-1 secretion during infusion: ~ 10 fold
- increase of oxyntomodulin secretion during infusion: ~ 9 fold
